Laboratory results as given in US4814455A, “Dihydro-3,5-dicarboxylates” (Bristol-Myers Company, priority 1986, dated 1989).
Structures can show the parent of a compound that is named as a salt. Where two headings read alike, the source gives them in different places.

Legend:
rat dorsal aorta = rat dorsal aorta (Rattus norvegicus, UniProt P22002); experiment: cell-based; details: read-out: Calcium Entry Blockade (pA2) (converted)
Excerpt: Calcium ion entry blockade was studied in various smooth muscle systems such as rat dorsal aorta, portal vein, and trachea.

[1] = tested on: globally ischemic rat myocardium; experiment: Autolysis: protection of high energy phosphate stores in globally ischemic rat myocardium; set-up: Autolysis (% Protection): concentration or dose not given beside the values; details: for Autolysis (% Protection): protection of high energy phosphate stores in globally ischemic rat myocardium
[2] = pA2 = negative log of molar antagonist concentration giving dose ratio of 2, active if 7 or greater

Sequence of rat dorsal aorta (P22002 whole entry): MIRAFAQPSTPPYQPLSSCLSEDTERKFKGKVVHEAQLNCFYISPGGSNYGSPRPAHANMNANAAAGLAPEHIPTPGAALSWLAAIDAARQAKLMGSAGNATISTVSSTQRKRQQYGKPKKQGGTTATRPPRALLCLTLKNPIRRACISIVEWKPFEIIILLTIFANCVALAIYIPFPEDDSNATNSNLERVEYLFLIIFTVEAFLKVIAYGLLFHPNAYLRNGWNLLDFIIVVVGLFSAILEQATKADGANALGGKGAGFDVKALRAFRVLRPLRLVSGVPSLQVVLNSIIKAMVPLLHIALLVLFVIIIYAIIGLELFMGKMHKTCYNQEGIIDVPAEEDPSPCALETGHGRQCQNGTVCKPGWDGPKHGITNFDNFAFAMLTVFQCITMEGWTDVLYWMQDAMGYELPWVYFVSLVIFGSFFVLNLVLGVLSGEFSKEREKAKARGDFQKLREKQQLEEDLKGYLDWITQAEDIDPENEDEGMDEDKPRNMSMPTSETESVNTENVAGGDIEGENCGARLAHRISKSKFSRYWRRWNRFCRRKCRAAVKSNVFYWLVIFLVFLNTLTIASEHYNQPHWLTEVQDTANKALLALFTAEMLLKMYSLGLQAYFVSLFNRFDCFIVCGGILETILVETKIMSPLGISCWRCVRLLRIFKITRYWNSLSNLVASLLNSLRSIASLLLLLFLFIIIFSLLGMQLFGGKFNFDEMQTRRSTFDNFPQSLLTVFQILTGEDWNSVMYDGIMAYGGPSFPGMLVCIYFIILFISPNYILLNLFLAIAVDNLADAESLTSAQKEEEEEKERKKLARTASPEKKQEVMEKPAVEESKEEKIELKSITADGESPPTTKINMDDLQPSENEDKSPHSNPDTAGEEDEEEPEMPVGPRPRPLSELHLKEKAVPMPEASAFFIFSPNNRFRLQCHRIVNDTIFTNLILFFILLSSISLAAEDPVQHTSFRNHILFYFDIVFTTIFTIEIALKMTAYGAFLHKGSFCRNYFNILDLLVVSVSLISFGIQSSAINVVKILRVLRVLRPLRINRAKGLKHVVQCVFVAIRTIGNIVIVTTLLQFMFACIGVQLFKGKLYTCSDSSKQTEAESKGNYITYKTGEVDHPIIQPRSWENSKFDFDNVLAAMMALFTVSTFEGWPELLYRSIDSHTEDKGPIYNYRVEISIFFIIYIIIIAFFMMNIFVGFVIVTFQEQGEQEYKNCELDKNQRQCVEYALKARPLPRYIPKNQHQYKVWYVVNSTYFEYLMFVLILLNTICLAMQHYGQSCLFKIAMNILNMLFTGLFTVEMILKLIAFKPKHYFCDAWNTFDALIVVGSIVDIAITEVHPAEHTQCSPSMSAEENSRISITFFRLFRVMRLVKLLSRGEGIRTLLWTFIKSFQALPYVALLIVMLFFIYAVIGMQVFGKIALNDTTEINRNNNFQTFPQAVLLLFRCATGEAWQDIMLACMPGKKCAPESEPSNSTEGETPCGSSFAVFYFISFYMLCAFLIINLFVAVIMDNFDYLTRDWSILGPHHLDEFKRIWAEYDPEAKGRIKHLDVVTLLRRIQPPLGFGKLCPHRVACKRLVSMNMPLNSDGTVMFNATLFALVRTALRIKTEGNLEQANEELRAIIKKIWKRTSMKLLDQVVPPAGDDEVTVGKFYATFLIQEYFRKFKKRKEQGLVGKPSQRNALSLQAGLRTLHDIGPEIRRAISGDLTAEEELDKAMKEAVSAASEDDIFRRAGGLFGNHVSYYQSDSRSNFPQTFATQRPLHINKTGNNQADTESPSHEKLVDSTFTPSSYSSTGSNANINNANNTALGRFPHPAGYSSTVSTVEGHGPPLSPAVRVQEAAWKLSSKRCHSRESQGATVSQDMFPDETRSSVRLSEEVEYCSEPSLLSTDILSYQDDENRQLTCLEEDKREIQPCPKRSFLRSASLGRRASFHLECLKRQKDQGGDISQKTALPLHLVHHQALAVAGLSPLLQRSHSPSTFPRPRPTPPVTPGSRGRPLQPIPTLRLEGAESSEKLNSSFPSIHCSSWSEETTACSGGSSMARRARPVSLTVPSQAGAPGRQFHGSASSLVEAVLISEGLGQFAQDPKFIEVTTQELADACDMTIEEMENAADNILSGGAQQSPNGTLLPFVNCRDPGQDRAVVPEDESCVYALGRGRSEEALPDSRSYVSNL
Sequence of rat dorsal aorta (P54290 25-944 partner limits assumed): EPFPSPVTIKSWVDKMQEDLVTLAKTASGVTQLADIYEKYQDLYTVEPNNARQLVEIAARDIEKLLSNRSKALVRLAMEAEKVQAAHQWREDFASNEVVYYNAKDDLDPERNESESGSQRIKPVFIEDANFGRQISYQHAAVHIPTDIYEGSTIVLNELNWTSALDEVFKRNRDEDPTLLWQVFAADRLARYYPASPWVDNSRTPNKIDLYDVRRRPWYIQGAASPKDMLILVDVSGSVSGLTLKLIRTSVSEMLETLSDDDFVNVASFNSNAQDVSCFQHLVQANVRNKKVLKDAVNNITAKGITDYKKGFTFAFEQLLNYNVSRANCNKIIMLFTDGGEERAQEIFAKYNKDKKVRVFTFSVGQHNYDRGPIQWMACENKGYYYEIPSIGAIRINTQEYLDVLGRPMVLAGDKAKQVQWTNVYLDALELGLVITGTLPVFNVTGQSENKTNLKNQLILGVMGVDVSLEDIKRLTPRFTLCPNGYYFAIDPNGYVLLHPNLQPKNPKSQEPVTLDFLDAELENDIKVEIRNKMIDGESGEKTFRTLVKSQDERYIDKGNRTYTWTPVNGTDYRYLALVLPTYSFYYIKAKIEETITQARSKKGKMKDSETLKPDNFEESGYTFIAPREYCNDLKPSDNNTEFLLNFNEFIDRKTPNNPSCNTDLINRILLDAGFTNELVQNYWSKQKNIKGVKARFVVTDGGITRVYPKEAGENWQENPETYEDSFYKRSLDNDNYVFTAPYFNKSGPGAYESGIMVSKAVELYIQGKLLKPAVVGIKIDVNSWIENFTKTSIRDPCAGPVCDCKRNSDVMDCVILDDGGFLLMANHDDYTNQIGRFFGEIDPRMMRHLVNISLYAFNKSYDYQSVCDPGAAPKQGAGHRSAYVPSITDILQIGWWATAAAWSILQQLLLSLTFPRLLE
Sequence of rat dorsal aorta (P54290 945-1091 partner limits assumed): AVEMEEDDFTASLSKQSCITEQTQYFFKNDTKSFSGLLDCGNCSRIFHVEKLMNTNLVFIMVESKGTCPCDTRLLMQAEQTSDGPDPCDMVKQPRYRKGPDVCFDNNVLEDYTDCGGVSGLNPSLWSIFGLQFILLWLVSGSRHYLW

Kb (rat dorsal aorta; [2]) [nM]	Kb (rat dorsal aorta; […], active if 7 or greater) [nM]	SMILES	Autolysis (% Protection) [1] [%]	anti-ischemia action / protection against autolysis caused by ischemia ([1]; in words, in vitro and in vivo laboratory tests)
2.95		COC(=O)C1=C(C)NC(C)=C(C(=O)OCCCNCCNc2ccccc2)C1c1cccc([N+](=O)[O-])c1 (centres unmarked) [Example 32]	0	
0.0316		COC(=O)C1=C(C)NC(C)=C(C(=O)OCCCNCCc2c[nH]c3ccccc23)C1c1cccc([N+](=O)[O-])c1 (centres unmarked) [Example 33]	35	
	0.126	COC(=O)C1=C(C)NC(C)=C(C(=O)OCCCN(C)CCSc2ccccc2)C1c1cccc([N+](=O)[O-])c1.Cl (centres unmarked) [Example 34, Methyl [3-[N-Methyl-N-[2-(phenylthio)ethyl]amino]propyl] 1,4-Dihydro-2,6-dimethyl-4-(3-nitrophenyl)-3,5-pyridinedicarboxylate Hydrochloride]	43	
0.468		COC(=O)C1=C(C)NC(C)=C(C(=O)OCCCNCCOc2ccccc2)C1c1cccc([N+](=O)[O-])c1 (centres unmarked) [Example 35]	21	
0.126		COC(=O)C1=C(C)NC(C)=C(C(=O)OCCCN(C)CCN(C)c2ccccc2)C1c1cccc([N+](=O)[O-])c1 (centres unmarked) [Example 36]	12	
0.129		COC(=O)C1=C(C)NC(C)=C(C(=O)OCCCN(C)CCNc2ccccc2)C1c1cccc([N+](=O)[O-])c1 (centres unmarked) [Example 37]	23	
		COC(=O)C1=C(C)NC(C)=C(C(=O)OCCCN(C)CCN(Cc2ccccc2)c2ccccc2)C1c1cccc([N+](=O)[O-])c1 (centres unmarked) [Example 38]	16	
14.5		COC(=O)C1=C(C)NC(C)=C(C(=O)OCCCN(C)CCSc2ccc(C(C)(C)C)cc2C)C1c1cccc([N+](=O)[O-])c1 (centres unmarked) [Example 39]	51	
3.63		COC(=O)C1=C(C)NC(C)=C(C(=O)OCCCN(C)CCCSc2ccccc2)C1c1cccc([N+](=O)[O-])c1 (centres unmarked) [Example 40]	23	
2.75		COC(=O)C1=C(C)NC(C)=C(C(=O)OCCCN(C)CCSc2ccccc2OC)C1c1cccc([N+](=O)[O-])c1 (centres unmarked) [Example 41]		
8.32		COC(=O)C1=C(C)NC(C)=C(C(=O)OCCCNCCSc2ccccc2)C1c1cccc([N+](=O)[O-])c1 (centres unmarked) [Example 42]		
2.4		COC(=O)C1=C(C)NC(C)=C(C(=O)OCCCN(CCSc2ccccc2)CCSc2ccccc2)C1c1cccc([N+](=O)[O-])c1 (centres unmarked) [Example 43]	2	
0.933		CCCCN(CCCOC(=O)C1=C(C)NC(C)=C(C(=O)OC)C1c1cccc([N+](=O)[O-])c1)CCOc1ccccc1 (centres unmarked) [Example 44, [3-[[N-Butyl-N-(2-phenoxyethyl)]amino]propyl]Methyl 1,4-Dihydro-2,6-dimethyl-4-(3-nitrophenyl)-3,5-pyridinedicarboxylate Hydrochloride Hemihydrate]	16	
0.794		COC(=O)C1=C(C)NC(C)=C(C(=O)OCCCN(CCN(C)c2ccccc2)Cc2ccccc2)C1c1cccc([N+](=O)[O-])c1 (centres unmarked) [Example 45, [3-[[[2-(N-Methyl-N-phenyl)amino]ethyl]-N'-phenylmethyl]propyl]Methyl 1,4-Dihydro-2,6-dimethyl-4-(3-nitrophenyl)-3,5-pyridinedicarboxylate Dihydrochloride Sesquihydrate]		
	5.62	COC(=O)C1=C(C)NC(C)=C(C(=O)OCCCN(CCSc2ccccc2)Cc2ccccc2)C1c1cccc([N+](=O)[O-])c1.Cl (centres unmarked) [Example 46, Methyl [3-[N-(Phenylmethyl)-N-[2-(phenylthio)ethyl]amino]propyl] 1,4-Dihydro-2,6-dimethyl-4-(3-nitrophenyl)-3,5-pyridinedicarboxylate Hydrochloride]	3	
0.251		COC(=O)C1=C(C)NC(C)=C(C(=O)OCCCN(C)CC[S+]([O-])c2ccccc2)C1c1cccc([N+](=O)[O-])c1 (centres unmarked) [Example 47, Methyl [3-[N-Methyl-N-[2-phenylsulfinyl)ethyl]amino]propyl] 1,4-Dihydro-2,6-dimethyl-4-(3-nitrophenyl)-3,5-pyridinedicarboxylate Hydrochloride Hydrate]	21	
1.12		COC(=O)C1=C(C)NC(C)=C(C(=O)OCCN(C)Cc2ccccc2)C1c1cccc([N+](=O)[O-])c1 (centres unmarked) [Nicardipine, reference compound]	0	fails to provide any protection against autolysis caused by ischemia
		COC(=O)C1=C(C)NC(C)=C(C(=O)OC)C1c1ccccc1[N+](=O)[O-] [Nifedipine, 4-(2'-nitrophenyl)-2,6-dimethyl-3,5-dicarbomethoxy-1,4-dihydropyridine, reference compound]	21	
